According to US20090062255A1, “TUMOR-TARGETING EVALUATION METHODOLOGY AND COMPOUNDS RELATED THERETO” (THALLION PHARMACEUTICALS INC., priority 2007, published 2009):
Like-named read-outs stand apart in the source and are kept apart here.

Columns and labels:
[1] = tested on: GL26 glioblastoma cell line; assay: MTT cytotoxicity, GL26 cell line; assay type: cell-based; details: 96 h, Human
Method: The cytotoxic activity of Compound 1 was further evaluated using a panel of brain tumor cell lines. This study was performed in collaboration with INSERM (Grenoble, France). Tumor cells (5,000 to 10,000 cells per well depending on their doubling time) were plated in 96-well flat-bottom plates and incubated for 24 hours before treatment. Tumor cells were then incubated for 96 hours with seven different concentrations of Compound 1: […], 0.01, and 0.001 μM. The in vitro cytotoxic activity was determined by a standard MTT assay.

[2] = tested on: 60 different human tumor cell lines; assay: NCI in vitro screening, 60 human tumor cell lines; assay type: cell-based; details: for GI50: Homo sapiens
Excerpt: A study measuring the in vitro cytotoxic activity of Compound 1 was first performed by the NCI (National Cancer Institute, U.S. National Institutes of Health, Bethesda, Md., USA) against a panel of human cancer cell lines. This screen utilizes 60 different human tumor cell lines, representing cancers of the blood, skin, lung, colon, brain, ovary, breast, prostate, and kidney (More information available at: http://dtp.nci.nih.gov/branches/btb/ivclsp.html.) The compound was sent and tested on three occasions (Mar. 31, 2003; Dec. 1, 2003; Mar. 27, 2007).

human MEK1 = biological target: T1, human MEK1 (Homo sapiens, UniProt Q02750); assay: Upstate Kinase Profiler, MEK1; assay type: biochemical
T1 construct: purchased Upstate (Kinase Profiler Service; Dundee, UK)
Method: (§1) Unlike current Ras signalling pathway inhibitors, ECO-4601 is not a direct kinase inhibitor. This was documented by evaluating the effect of ECO-4601 on human EGFR, c-RAF, MEK1, MAPK1 (ERK1) and MAPK2 (ERK2) kinase-activity (Upstate Kinase Profiler™ Service; Dundee, UK). ECO-4601 was tested at 0.5 μM and 5 μM in a final volume of 25 μL according to standard protocols developed by Upstate Ltd. Briefly, purified recombinant human enzymes were incubated with 25 mM Tris pH 7.5 containing EGTA, a specific substrate and γ-^32P-ATP. The reaction was initiated with MgATP mix and incubated for 40 minutes at RT. The reaction was stopped by the addition of 5 μL of a 3% phosphoric acid solution; aliquots were spotted on filters and counted. Detailed procedures are available on the Millipore Upstate website.

[3] = tested on: genes involved in steroid biosynthesis, cholesterol transport/metabolism, signal transduction and apoptosis; assay: Gene expression in animals treated with Compound 1; details: in vivo
Raf-1 = Raf-1 protein levels in MiaPaCa-2 tumors (Western blot); assay type: in vivo, mice; details: 20 mg/kg SC daily for 5 days
Method: In this model, it was verified if there was an association between antitumor activity and inhibition of the Ras-MAPK pathway. In parallel to the antitumor study described above, two additional groups of 5 mice were treated SC with vehicle or 20 mg/kg ECO-4601, administered daily for 5 days. Animals from these two groups were sacrificed two hours on day 5 of treatment. As shown by quantification of Western blot analysis (FIG. 13), Raf-1 levels were reduced in MiaPaCa-2 tumors obtained from animals treated with ECO-4601 compared with the vehicle-treated animals.

[4] = tested on: human breast cell line MCF-7; assay: Growth inhibitory MTT assay, MCF-7; assay type: cell-based; details: 72 hours, treated over control
Method: Growth inhibitory activity of ECO-4601 (Compound 1) and other dibenzodiazepinone analogs was evaluated on a panel of 4 human tumor cell lines: the human uterine sarcoma MES-SA and its doxorubicin-resistant P-glycoprotein over-expressing variant, MES-SA/DX5 as well as non-aggressive and highly aggressive human breast cell lines, MCF-7 and MDA-MB-231, respectively. These four cell lines were obtained from the American Type Culture Collection (Manassas, Va.) and cultured in RPMI plus 10% fetal bovine serum (FBS) and maintained at 37° C. with 5% CO2.
Exponentially growing cells (5,000 cells per well time; cell number determined with a hemocytometer) were seeded in 96-well flat-bottom plates and allowed to grow overnight. Cells were then incubated for 72 hours with three different concentrations of ECO-4601 or analogs: 30,10, and 3 μM. The in vitro growth inhibitory activity was determined by a commercial MTT assay. All measurements were done in quadruplicate and each experiment was performed 2-3 times. The lower the value, the more cytotoxic is the compound.

human c-RAF = biological target: T2, human c-RAF (Homo sapiens, UniProt P04049); assay: Upstate Kinase Profiler, c-RAF; assay type: biochemical
T2 construct: purchased Upstate (Kinase Profiler Service; Dundee, UK)
Method: as §1

T2 sequence (P04049 whole entry): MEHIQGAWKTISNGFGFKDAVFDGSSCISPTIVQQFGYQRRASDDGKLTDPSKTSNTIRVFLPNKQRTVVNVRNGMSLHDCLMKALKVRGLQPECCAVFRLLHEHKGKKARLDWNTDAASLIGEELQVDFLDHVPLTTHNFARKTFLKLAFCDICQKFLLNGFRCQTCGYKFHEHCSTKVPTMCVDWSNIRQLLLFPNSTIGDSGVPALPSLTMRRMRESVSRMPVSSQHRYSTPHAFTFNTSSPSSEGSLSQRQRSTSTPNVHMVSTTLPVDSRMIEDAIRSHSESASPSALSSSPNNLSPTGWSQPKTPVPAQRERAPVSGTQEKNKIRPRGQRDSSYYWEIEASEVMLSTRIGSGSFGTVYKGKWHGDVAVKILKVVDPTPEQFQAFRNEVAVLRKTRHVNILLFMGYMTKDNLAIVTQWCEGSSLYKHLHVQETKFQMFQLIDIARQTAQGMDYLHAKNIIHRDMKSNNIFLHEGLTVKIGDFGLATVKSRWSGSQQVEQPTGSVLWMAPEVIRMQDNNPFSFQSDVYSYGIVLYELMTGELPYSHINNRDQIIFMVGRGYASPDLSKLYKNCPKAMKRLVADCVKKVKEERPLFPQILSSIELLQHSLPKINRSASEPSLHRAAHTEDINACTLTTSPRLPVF
T1 sequence (Q02750 whole entry): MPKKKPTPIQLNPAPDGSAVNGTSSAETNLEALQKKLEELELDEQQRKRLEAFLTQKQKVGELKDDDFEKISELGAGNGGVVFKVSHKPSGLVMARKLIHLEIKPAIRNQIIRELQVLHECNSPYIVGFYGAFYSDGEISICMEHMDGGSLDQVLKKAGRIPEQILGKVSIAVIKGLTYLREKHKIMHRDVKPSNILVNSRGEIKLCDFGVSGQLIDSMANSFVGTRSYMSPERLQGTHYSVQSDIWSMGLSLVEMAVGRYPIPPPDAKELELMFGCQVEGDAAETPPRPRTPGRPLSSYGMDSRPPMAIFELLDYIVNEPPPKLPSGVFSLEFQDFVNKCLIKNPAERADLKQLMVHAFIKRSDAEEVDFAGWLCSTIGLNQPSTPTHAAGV

**Q.** With `CC(C)=CCC/C(C)=C/CC/C(C)=C/CN1C(=O)c2cccc(O)c2Nc2c(O)cc(O)cc21` [Compound 1, 10-farnesyl-4,6,8-trihydroxy-5,10-dihydrodibenzo[b,e][1,4]diazepin-11-one] as the molecule, how does the IC50 [1] read?
**A.** 8.9 ± 1.1 µM

**Q.** And the “cytotoxic activity in NCI in vitro screening (in words)” value ([2]; 60 cell lines)?
**A.** low micromolar range

**Q.** And the GI50 ([2]; Breast carcinoma cell, breast carcinoma cell lines, read-out: GI50 range)?
**A.** 1.4 to 16.3 µM

**Q.** What about the GI50 ([2]; CNS (glioblastoma) cell lines, read-out: GI50 range) of the same molecule?
**A.** 2 to 6.5 µM

**Q.** And the GI50 ([2]; Colon carcinoma cell, colon carcinoma cell lines, read-out: GI50 range)?
**A.** 3 to 17.3 µM

**Q.** And the GI50 ([2]; Ovarian carcinoma cell, ovarian carcinoma cell lines, read-out: GI50 range)?
**A.** 2.5 to 6.2 µM

**Q.** And the GI50 ([2]; leukemia cell lines, read-out: GI50 range)?
**A.** 0.9 to 5 µM

**Q.** And the GI50 ([2]; melanoma cell lines, read-out: GI50 range)?
**A.** 1.8 to 8.1 µM

**Q.** What about the GI50 ([2]; non-small cell lung carcinoma cell lines, read-out: GI50 range) of the same molecule?
**A.** 1.9 to 10.8 µM

**Q.** And the GI50 ([2]; prostate carcinoma cell lines, read-out: GI50)?
**A.** 3.5 to 9.3 µM

**Q.** What about the GI50 ([2]; renal carcinoma cell lines, read-out: GI50 range) of the same molecule?
**A.** 2.9 to 14.5 µM

**Q.** What about the “direct inhibition of MEK1 kinase activity (in words)” value (human MEK1; 0.5 μM and 5 μM) of the same molecule?
**A.** does not directly inhibit

**Q.** What about the activity at 0.5 µM (human MEK1; MEK1, 0.5 μM, % of enzyme activity over positive control, read-out: Kinase Activity (%) ± SD) of the same molecule?
**A.** 106 ± 2%

**Q.** And the activity at 5 µM (human MEK1; MEK1, 5 μM, % of enzyme activity over positive control, read-out: Kinase Activity (%) ± SD)?
**A.** 98 ± 1%

**Q.** And the “expression of several genes in treated animals” value [3]?
**A.** increased expression

**Q.** And the “Raf-1 levels in MiaPaCa-2 tumors versus vehicle-treated animals” value (Raf-1)?
**A.** reduced

**Q.** What about the “% T/C at 10 μM” value [4] of the same molecule?
**A.** 44%

**Q.** What about the “direct inhibition of c-Raf kinase activity (in words)” value (human c-RAF; 0.5 μM and 5 μM) of the same molecule?
**A.** does not directly inhibit

**Q.** And the activity at 0.5 µM (human c-RAF; c-Raf, 0.5 μM, % of enzyme activity over positive control, read-out: Kinase Activity (%) ± SD)?
**A.** 114 ± 12%

**Q.** What about the activity at 5 µM (human c-RAF; c-Raf, 5 μM, % of enzyme activity over positive control, read-out: Kinase Activity (%) ± SD) of the same molecule?
**A.** 94 ± 2%
